Experimental data from PubChem BioAssay (NCI).
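Following 48 hours of exposure in 96-well plates, responses at five concentrations were used to interpolate endpoints linearly. GI50 = concentration required for 50% inhibition of growth. TGI: total growth inhibition.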

Experiments:
Assay in all cases: NCI-60 cell line screen, 48 h
SNB-75 CNS = test system: SNB-75 CNS
IGROV1 ovarian = test system: IGROV1 ovarian
SW-620 colon = test system: SW-620 colon
786-0 renal = test system: 786-0 renal
U251 CNS = test system: U251 CNS
SK-MEL-2 melanoma = test system: SK-MEL-2 melanoma
K-562 leukemia = test system: K-562 leukemia
SK-OV-3 ovarian = test system: SK-OV-3 ovarian
KM12 colon = test system: KM12 colon
OVCAR-3 ovarian = test system: OVCAR-3 ovarian

Structure (SMILES) | TGI (SNB-75 CNS) | TGI (IGROV1 ovarian) | TGI (SW-620 colon) | TGI (786-0 renal) | TGI (U251 CNS) | TGI (SK-MEL-2 melanoma) | TGI (K-562 leukemia) | TGI (SK-OV-3 ovarian) | TGI (KM12 colon) | TGI (OVCAR-3 ovarian) | GI50 (SNB-75 CNS) | GI50 (IGROV1 ovarian) | GI50 (SW-620 colon) | GI50 (786-0 renal) | GI50 (U251 CNS) | GI50 (SK-MEL-2 melanoma) | GI50 (K-562 leukemia) | GI50 (SK-OV-3 ovarian) | GI50 (KM12 colon) | GI50 (OVCAR-3 ovarian)
C1CN(c2nnc(N3CCC3)nn2)C1 | > 46.4 µM | > 100 µM | 59 µM | 49.5 µM | > 92.6 µM | > 89.5 µM | > 31.6 µM | > 100 µM | > 100 µM | > 100 µM |  |  |  |  |  |  |  |  |  | 
COc1ccc(/C=C/c2c(C(=O)/C=C/c3ccc(C(F)(F)F)cc3)c(C)nc3ccccc23)cc1 | 2.85 µM | 2.39 µM | 4.7 µM | 3.02 µM | 3.28 µM | 4.64 µM | > 100 µM | 5.82 µM | 5.09 µM | 3.48 µM | 1.43 µM | 0.466 µM | 1.48 µM | 1.61 µM | 1.53 µM | 2.05 µM | 2.05 µM | 2.24 µM | 2.12 µM | 1.64 µM
O=C(O)/C(Cc1cn[nH]n1)=N\O | > 100 µM | > 100 µM | > 100 µM | > 100 µM | > 100 µM | > 100 µM | > 100 µM | > 100 µM | > 100 µM | > 100 µM |  |  |  |  |  |  |  |  |  | 
CN(C)CCCn1c(=O)c2ccccc2c2cnc3[nH]ccc3c21 | 3.6 µM | 11.7 µM | 3.66 µM | 10.9 µM | 7.21 µM | 5.38 µM | 11.5 µM | 7.11 µM | 9.78 µM | 6.35 µM | 1.17 µM | 2.28 µM | 0.529 µM | 0.85 µM | 2.12 µM | 1.79 µM | 2.03 µM | 1.97 µM | 1.63 µM | 2.4 µM
O=C(C(=O)n1ncc(Cl)c(Cl)c1=O)n1ncc(Cl)c(Cl)c1=O | 97.2 µM | > 77.3 µM | 42.7 µM | 44.6 µM | > 100 µM | 74.9 µM | > 100 µM | > 100 µM | > 100 µM | 68.2 µM |  |  |  |  |  |  |  |  |  | 
S=C1Cc2c(-c3ccc(Br)cc3)cc(-c3ccccc3)nc2-c2ccccc2N1 | 3.35 µM | 2.94 µM | 9.15 µM | 1.79 µM | 2.58 µM | 20 µM | > 100 µM | 3.27 µM | > 42 µM | 6.93 µM |  |  |  | 0.632 µM |  |  |  |  |  | 
COc1cccc2cc(N(C)c3nc(C)nc4c3CCC4)ccc12 | 24.2 µM | 23.9 µM | 18.6 µM | 14.4 µM | 12.8 µM | 14.2 µM | 31.5 µM |  | 10.7 µM | < 0.01 µM |  | < 0.01 µM | < 0.01 µM | < 0.01 µM | < 0.01 µM | < 0.01 µM | < 0.01 µM | < 0.01 µM | < 0.01 µM | < 0.01 µM
O=C(Nc1ccccc1I(=O)=O)C1CCCCC1 | > 100 µM | > 100 µM | > 100 µM | > 100 µM | > 100 µM | > 100 µM | > 100 µM | > 100 µM | > 100 µM | > 100 µM | > 100 µM | > 100 µM | > 100 µM | > 100 µM | > 100 µM | > 100 µM | 56.8 µM | > 100 µM | > 100 µM | > 100 µM
COC(=O)c1c(-c2cccs2)oc(-c2cccs2)c1C(=O)OC | > 100 µM | > 100 µM | > 100 µM | 49.8 µM | > 100 µM | > 100 µM | > 100 µM | > 100 µM | > 100 µM | > 94.5 µM | > 73.6 µM | 36.2 µM | 31 µM | 18 µM | 59.6 µM | 39.5 µM | 44.9 µM | > 100 µM | 32.5 µM | 30.4 µM
CCN(CC)CCCC(C)Nc1cc(-c2cccc(OC(F)(F)F)c2)nc2ccc(N3CCCC3)cc12 (centres undefined) | 59.4 µM | > 100 µM | > 100 µM | 26.1 µM | 21.9 µM | 27 µM | > 100 µM | 98.7 µM | 11.4 µM | 0.382 µM | 0.0361 µM | 0.0941 µM | 0.0433 µM | 0.158 µM | 0.0473 µM | 0.598 µM | 0.0391 µM | 0.0779 µM | 0.0437 µM | 0.0305 µM
O=C(O)/C(Cc1ccnc2ccccc12)=N\O | > 100 µM | > 100 µM | > 100 µM | > 100 µM | > 100 µM | > 100 µM | > 100 µM | > 100 µM | > 100 µM | > 100 µM |  |  |  |  |  |  |  |  |  | 
COc1ccc2nc(C(=O)c3ccccc3)c(C)cc2c1 | 14.4 µM | > 73.1 µM | > 37.4 µM | 38.1 µM | 10.8 µM | > 100 µM | > 100 µM | 15.8 µM | > 45.8 µM | > 24.3 µM |  |  |  |  |  |  |  |  |  | 
COc1ccccc1NC(=O)C1=C(C)NC(C)=C(C(=O)Nc2ccccc2OC)C1/C=C/c1ccccc1 | 79.7 µM | > 100 µM | > 100 µM | > 100 µM | > 100 µM | > 100 µM | > 100 µM | > 100 µM | > 100 µM | > 100 µM |  |  |  |  |  |  |  |  |  | 
CCCCCCCCCCCCC(O)c1ccco1 (centres undefined) | 39 µM | 42.7 µM | 32 µM | 36.6 µM | 29.7 µM | 46 µM | 48 µM | 44.7 µM | 48.1 µM | 34.4 µM | 21.1 µM | 21.1 µM | 16.7 µM | 19.7 µM | 16.2 µM | 22 µM | 29.1 µM | 22.5 µM | 21.7 µM | 17.9 µM
Cc1c(C(=O)O)n(C)c(=O)n(C)c1=O | > 100 µM | > 100 µM | > 100 µM | > 100 µM | > 100 µM | > 100 µM | > 100 µM | > 100 µM | > 100 µM | > 100 µM |  |  |  |  |  |  |  |  |  | 
